ChEMBL document CHEMBL3885861, “Open TG-GATES”

Organism: Rattus norvegicus
Assay: Open TG-GATES - Regimen: Daily Repeat
Format: toxicity, organism-based, Sprague-Dawley
Set-up: regimen Daily Repeat, gender Male, age 6 weeks
Settings: in vivo, po, 75 mg/kg, route gavage, dose level High; for APTT / Bas / Eos / Fbg / Hb / Ht / Lym / MCH / MCHC / MCV / Mono / Neu / PT / Plat / RBC / Ret / WBC: tissue Blood
[1] = 72 h, tissue Kidney, time 3 day
[2] = 72 h, tissue Plasma, time 3 day

SMILES: NC1=NC(=O)C(c2ccccc2)O1 (stereo unspecified) [PEMOLINE]
- TERMINAL_BW (72 h, time 3 day): 210.2 g
- APTT (72 h, time 3 day): 16.1 s
- Bas (72 h, time 3 day): 0%
- Eos (72 h, time 3 day): 1%
- Fbg (72 h, time 3 day): 378.8 mg/dL
- Hb (72 h, time 3 day): 13.2 g/dL
- Ht (72 h, time 3 day): 38.4%
- Lym (72 h, time 3 day): 72.6%
- MCH (72 h, time 3 day): 21.4 pg
- MCHC (72 h, time 3 day): 34.3%
- MCV (72 h, time 3 day): 62.4 fL
- Mono (72 h, time 3 day): 4%
- Neu (72 h, time 3 day): 21.4%
- PT (72 h, time 3 day): 13.1 s
- Plat (72 h, time 3 day): 116.2 x10_4/uL
- RBC (72 h, time 3 day): 614.2 x10_4/ul
- Ret (72 h, time 3 day): 5.7%
- WBC (72 h, time 3 day): 96.9 x10_2/uL
- KIDNEY_L [1]: 1 g
- KIDNEY_R [1]: 1 g
- KIDNEY_TOTAL [1]: 1.9 g
- LIVER (72 h, tissue Liver, time 3 day): 9.5 g
- A/G [2]: 0.9
- ALP [2]: 1189.4 IU/L
- ALT [2]: 40.6 IU/L
- AST [2]: 91.6 IU/L
- BUN [2]: 14.4 mg/dL
- CRE [2]: 0.2 mg/dL
- Ca [2]: 10.5 mg/dL
- Cl [2]: 106 meq/L
- DBIL [2]: 0.014 mg/dL
- GLC [2]: 162.2 mg/dL
- IP [2]: 7.4 mg/dL
- K [2]: 4 meq/L
- LDH [2]: 46.6 IU/L
- Na [2]: 142.6 meq/L
- PL [2]: 118.6 mg/dL
- RALB [2]: 2.6 g/dL
- TBIL [2]: 0.03 mg/dL
- TC [2]: 70.8 mg/dL
- TG [2]: 40.2 mg/dL
- TP [2]: 5.4 g/dL
- gamma-GTP [2]: 1 IU/L
- TERMINAL_BW ([…], time 7 day): 237.7 g
- TERMINAL_BW ([…], time 14 day): 305 g
- TERMINAL_BW ([…], time 28 day): 376.6 g
- APTT ([…], time 7 day): 16.7 s
- Bas ([…], time 7 day): 0%
- Eos ([…], time 7 day): 1%
- Fbg ([…], time 7 day): 294.8 mg/dL
- Hb ([…], time 7 day): 13.9 g/dL
- Ht ([…], time 7 day): 40.7%
- Lym ([…], time 7 day): 78%
- MCH ([…], time 7 day): 21.9 pg
- MCHC ([…], time 7 day): 34.2%
- MCV ([…], time 7 day): 63.8 fL
- Mono ([…], time 7 day): 3%
- Neu ([…], time 7 day): 17.8%
- PT ([…], time 7 day): 12.9 s
- Plat ([…], time 7 day): 131.8 x10_4/uL
- RBC ([…], time 7 day): 638.8 x10_4/ul
- Ret ([…], time 7 day): 6.6%
- WBC ([…], time 7 day): 88.3 x10_2/uL
- APTT ([…], time 14 day): 16.9 s
- Bas ([…], time 14 day): 0%
- Eos ([…], time 14 day): 1.2%
- Fbg ([…], time 14 day): 259.4 mg/dL
- Hb ([…], time 14 day): 14.6 g/dL
- Ht ([…], time 14 day): 41.8%
- Lym ([…], time 14 day): 72.4%
- MCH ([…], time 14 day): 21.1 pg
- MCHC ([…], time 14 day): 34.8%
- MCV ([…], time 14 day): 60.5 fL
- Mono ([…], time 14 day): 2.8%
- Neu ([…], time 14 day): 23.2%
- PT ([…], time 14 day): 13 s
- Plat ([…], time 14 day): 105.3 x10_4/uL
- RBC ([…], time 14 day): 691.2 x10_4/ul
- Ret ([…], time 14 day): 4.7%
- WBC ([…], time 14 day): 89.3 x10_2/uL
- APTT ([…], time 28 day): 18.6 s
- Bas ([…], time 28 day): 0.4%
- Eos ([…], time 28 day): 1%
- Fbg ([…], time 28 day): 255.2 mg/dL
- Hb ([…], time 28 day): 15.7 g/dL
- Ht ([…], time 28 day): 44.2%
